Measured values reported in US20030068386A1, “Method of treating cancerous disease” (priority 2001, published 2003).

Legend:
[1] = test system: normal human fibroblasts; test: AS-induced toxicity to normal human fibroblasts, crystal violet cell number; assay type: cell-based; settings: for effect on AS cytotoxicity to human fibroblasts: ascorbic acid 5 mM, POBN 10 mM, DMSO 0.2 M in incubation medium
Protocol: Human fetal fibroblasts were cultured as described herein. Briefly, human fetal hearts of gestational age 16-24 weeks are aseptically obtained after elective termination of normal pregnancy by dilatation and evacuation. The aorta is then cannulated for continuous perfusion of the coronary arteries with calcium-free Tyrode's solution (117 mM NaCl, 5.7 mM KCl, 11 mM glucose, 4.4 mM NaHCO3, 1.5 mM KH2PO4, 1.7 mM MgCl2, HEPES 20 mM, pH 7.4) containing 1 U/ml of Na-heparin at 37° C., bubbled with 100% O2 as described for the Langendorff preparation. After 15 min of washing to clear the blood from the heart, fresh calcium-free Tyrode's solution containing 1.5 mg/ml collagenase A (type III) is recirculated for approximately 20 minutes. The heart dissociates spontaneously, allowing cells to slowly drip and fall on a Petri dish containing 0.25% trypsin, 1 mM EDTA in HBSS. Clumps of cells are dissociated and the resulting suspension poured over a cell strainer. Cells are centrifuged and the pellet resuspended in 20 ml of culture medium [DME supplemented with 10% fetal bovine serum, 50 U/ml PCN, 50 U/ml streptomycin, […] gentamicin, 1 mM non-essential amino acid (Gibco Laboratories), 0.1 mM essential medium vitamins (Gibco Laboratories), 2 mM glutamine, 0.1 mM Na pyruvate]. To obtain primary cardiac fibroblasts, the isolate will be plated in flasks (20 min at 37° C.). The fibroblasts will be passaged at 12×10^6 cells per 75 cm2 culture flask and grown in 5% CO2 at 37° C. After 3 passages in culture, the fibroblast stain using the fibroblast-specific antibody (monoclonal anti-human fibroblast surface protein, Clone 1B10).
The concentration of the hydroxylamine was determined by co-injection of 4-methylpicoline as described in Analytical Chemistry, Stoyanovsky, et al., supra. […] Normal human fibroblasts (800 cells per plate) were treated for 30 minutes at 37° C. with AS in 50 mM phosphate buffer (pH 6.3, open circles; pH 7.4, filled circles) containing 0.15 M NaCl and 0.2 mM CaC12. Thereafter, the fluid was removed, the cells were covered with minimal essential medium containing 10% fetal bovine serum (Sigma Chem. Co.,St. Louis, Mo.) and incubated at 37° C.; after 4 hours, the cell number was determined by the crystal violet method as known by those skilled in the art. Results are from four independent experiments. Each experimental point represents the mean of triplicate±SEM % (Mean value±standard error; n=3) of controls. […] The cells were treated as indicated in FIG. 5B except that in the incubation medium was included (1) ascorbic acid (5 mM) plus SOD (superoxide dismuthase)(300 U per ml) plus catalase (500 U per ml) filled circles, all purchased from Sigma Chem. Co.; (2) POBN (10 mM) open circles; or 3. DMSO ([…]) filled triangles.

[2] = test system: breast cancer cells (BRCA1, OMIM Number 113705); test: AS-induced toxicity to breast cancer cells, crystal violet cell number; assay type: cell-based, human
[3] = cited from earlier work

For `[Na+].[Na+].[O-][N+]([O-])=NO` [AS, sodium trioxodinitrate], the “toxicity to normal human fibroblasts” value ([1]; acidic conditions) was “toxic”, the “toxicity to normal human fibroblasts” value ([1]; non-acidic conditions) was “not toxic” and the cell toxicity ([1]; pH 7.4) was “not observed”. The “death of treated cells” value ([2]; pH 6.2, 30 minutes at 37° C. with AS, cell number after 4 hours) was “approximately 70%”, the cell toxicity ([2]; pH 7.4) was “not observed” and the stability ([3]; alkaline solutions) was “relatively stable”. The pK1 ([3]; aqueous solution) was 3.0, the pK2 ([3]; aqueous solution) was 9.35 and the rate of decomposition ([3]; pH interval of 3.5 to 8.5) was “rapid, proton-independent”.
With `C[S+](C)[O-]` [DMSO, dimethyl sulfoxide, reference compound] the “effect on AS cytotoxicity to human fibroblasts” value (“effect on AS cytotoxicity” below) [1] was “protective effect”.
For `CC(C)(C)[N+]([O-])=Cc1cc[n+]([O-])cc1` [POBN, alpha-(4-Pyridyl-1-oxide)-N-tert-butylnitrone, reference compound], the “effect on AS cytotoxicity” value [1] was “protective effect”.
With `O=C1O[C@H]([C@@H](O)CO)C(O)=C1O` [ascorbic acid, reference compound] the “effect on AS cytotoxicity” value [1] was “protective effect”.
